Measured values from patent publication US20260041773A1, “TOPICAL COMPOSITION COMPRISING A PROSTAGLANDIN ANALOGUE” (DERMALIQ THERAPEUTICS, INC., priority 2019, published 2026).

What was measured:
[1] = Penetration of cortexolone 17α-propionate, Franz Diffusion Cells; type: in vitro ADME; conditions: 1% (w/w) CB-03-01 in F4H5
Description: Cortexolone 17α-propionate (developmental code name CB-03-01; 21-Hydroxy-3,20-dioxopregn-4-en-17-yl propionate; CAS Registry Number: 19608-29-8) was dissolved in 1-perfluorbutylpentane (F4H5) to result in a solution of 1% (w/w) CB-03-01 in F4H5.

[2] = Penetration of latanoprost into minipig skin punches with and without hair (Franz Diffusion Cells, HPLC); type: in vitro ADME, Gottingen minipig; conditions: 2 hours incubation
Description: Biological material: abdominal and dorsal full skin, R1 and part of L1 region, of 5 months old Gottingen minipig skin.
For the incubation experiments, Franz Diffusion Cells (FDC) having an inner diameter of 15 mm and an acceptor volume of 12 ml were used. Donor and acceptor chambers were made of glass.
Twelve frozen full thickness skin disks were punched with a diameter of 30 mm. After complete defrosting and equilibration to room temperature, the punches were clamped into Franz diffusion cells (FDC). Each skin disc was dried with wipes, clamped in between the corresponding FDCs having an inner diameter of 15 mm (1.767 cm^2 skin diffusion area) and an acceptor volume of approximately 12 ml. The receiver compartment of the cells was filled with PBS (phosphate buffered saline). Incubation was started by addition of 800 […]1 of test formulation 1-3. […]
Out of each skin disc, 20 skin discs having a diameter of 2 mm were obtained by punching with a disposable biopsy punch, which was put on top of the skin and pressed through the full thickness of the skin. […] The ten punches with hair and without hair obtained by each disc were placed respectively in pre-weighed tubes and the weight was determined. […]
Via HPLC analysis, the amount of latanoprost penetrated in the skin disks after incubation with the test formulations and the amount of latanoprost acid were evaluated and are illustrated in the FIGS. 1-3.

[3] = Penetration of latanoprost solution in hair roots of pig's eyelashes (eyelid incubation, HPLC); type: in vitro ADME
Description: Test formulation: 0.5 mg/ml latanoprost (Yonsung, Purity 100,2%) in 1-perfluorobutylpentane (Novaliq) and 1% v/v ethanol (Merck, Secco solve dried).
Biological material: fresh pig's eyes with eyelids, not in buffer solution during transport from the slaughterhouse to the laboratory.
The upper eyelids were separated from the eye with scissors, forceps and scalpel. Each eyelid was placed in a glass vessel and incubation with the test formulation was started by addition of 1 ml of formulation. Since the eyelashes had different lengths, before incubation the eyelashes were shortened to standardise the incubation procedure. After incubation according to the plan in Table 3, the eyelids were washed with 1-perfluorobutylpentane eight times and eyelashes were plucked and weighted, as shown in Table 3.
After plucking of the eyelashes, the eyelids were punched with a 4 mm (0,126 cm^2) biopsy tool 5 times (total area 0,628 cm^2). The skin and the conjunctiva were then separated.
Extraction via addition of […] ACN (acetonitrile) to each sample at room temperature on orbital shaker (150 rpm) and minirotator (Biosan maximum level) for 2 hours. Then the samples were centrifuged for 5 minutes at 13000 rpm. The supernatant collected from the samples was stored at −20° C. till analysis.
The amount of latanoprost and of the bio transformed latanoprost acid in the tissues and eyelashes were determined via HPLC. For the calculation, the mean assay values for latanoprost acid were corrected with a factor of 1,1 as the molecular weight of latanoprost acid is lower than the weight of latanoprost.

## CCC(=O)O[C@]1(C(=O)CO)CC[C@H]2[C@@H]3CCC4=CC(=O)CC[C@]4(C)[C@H]3CC[C@@]21C [cortexolone 17α-propionate, 21-Hydroxy-3,20-dioxopregn-4-en-17-yl propionate]
[1]
  amount found in the dermis: especially high amounts of cortexolone 17α-propionate were found in the dermis
[1]; stratum corneum, epidermis and dermis
  delivery to layers of the skin: effectively and rapidly delivered to layers of the skin

## CC(C)OC(=O)CCC/C=C\C[C@@H]1[C@@H](CC[C@@H](O)CCc2ccccc2)[C@H](O)C[C@@H]1O [latanoprost]
[2]; FIG. 1, microgram per cm^2
  uptake of latanoprost, skin punches with hair vs without hair: higher for skin punches with hair than for skin punches without hair
[2]; FIG. 2
  content of latanoprost acid, punches with hair vs without hair: higher content of latanoprost acid than punches without hair
[3]; 25 hours incubation, FIG. 5
  latanoprost acid in eyelashes: a small amount of latanoprost acid was detected
[3]; FIG. 4, 2, 15, 25 hrs
  amount of latanoprost in eyelashes: preferred affinity to the eyelashes
[3]; FIG. 4, compared with eyelashes
  amount of latanoprost in skin parts: Comparable lower amount of latanoprost were detected in the skin parts
